Experimental data reported in patent US20040063662A1, “Selenophene anti-tumor agents” (priority 1996, published 2004).
Where two headings read alike, the source gives them in different places.

Tests used:
[1] = test system: CCRF-CEM; assay: NCI human tumor cell panel: CCRF-CEM (Leukemia); assay type: cell-based
[2] = test system: HL-60(TB); assay: NCI human tumor cell panel: HL-60(TB) (Leukemia); assay type: cell-based
[3] = test system: K-562; assay: NCI human tumor cell panel: K-562 (Leukemia); assay type: cell-based
[4] = test system: A549/ATCC; assay: NCI human tumor cell panel: A549/ATCC (Non-Small Cell Lung Cancer); assay type: cell-based
[5] = test system: NCI-H226; assay: NCI human tumor cell panel: NCI-H226 (Non-Small Cell Lung Cancer); assay type: cell-based
[6] = test system: NCI-H23; assay: NCI human tumor cell panel: NCI-H23 (Non-Small Cell Lung Cancer); assay type: cell-based
[7] = test system: SF-268; assay: NCI human tumor cell panel: SF-268 (CNS Cancer); assay type: cell-based
[8] = test system: SNB-19; assay: NCI human tumor cell panel: SNB-19 (CNS Cancer); assay type: cell-based
[9] = test system: SK-MEL-2; assay: NCI human tumor cell panel: SK-MEL-2 (Melanoma); assay type: cell-based
[10] = test system: SK-MEL-28; assay: NCI human tumor cell panel: SK-MEL-28 (Melanoma); assay type: cell-based
[11] = test system: SK-MEL-5; assay: NCI human tumor cell panel: SK-MEL-5 (Melanoma); assay type: cell-based
[12] = test system: IGROV1; assay: NCI human tumor cell panel: IGROV1 (Ovarian Cancer); assay type: cell-based
[13] = test system: OVCAR-5; assay: NCI human tumor cell panel: OVCAR-5 (Ovarian Cancer); assay type: cell-based
[14] = test system: 786-0; assay: NCI human tumor cell panel: 786-0 (Renal Cancer); assay type: cell-based
[15] = test system: A498; assay: NCI human tumor cell panel: A498 (Renal Cancer); assay type: cell-based
[16] = test system: CAKI-1; assay: NCI human tumor cell panel: CAKI-1 (Renal Cancer); assay type: cell-based
[17] = test system: RXF-393; assay: NCI human tumor cell panel: RXF-393 (Renal Cancer); assay type: cell-based
[18] = test system: SN12C; assay: NCI human tumor cell panel: SN12C (Renal Cancer); assay type: cell-based
[19] = test system: TK-10; assay: NCI human tumor cell panel: TK-10 (Renal Cancer); assay type: cell-based
[20] = test system: PC-3; assay: NCI human tumor cell panel: PC-3 (Prostate Cancer); assay type: cell-based
[21] = test system: MCF7/ADR-RES; assay: NCI human tumor cell panel: MCF7/ADR-RES (Breast Cancer); assay type: cell-based
[22] = test system: MDA-MB-231/ATCC; assay: NCI human tumor cell panel: MDA-MB-231/ATCC (Breast Cancer); assay type: cell-based; details: Homo sapiens, MDA-MB-231, MDA-MB-231/ATCC
[23] = test system: HS 578T; assay: NCI human tumor cell panel: HS 578T (Breast Cancer); assay type: cell-based
[24] = test system: BT-549; assay: NCI human tumor cell panel: BT-549 (Breast Cancer); assay type: cell-based
[25] = Selective cytotoxicity microculture assay, human renal carcinoma; details: human, SCI (selectively cytotoxicity index), GI50 (RPTEC)/GI50 (A-498)
[26] = test system: NCI-H522; assay: NCI human tumor cell panel: NCI-H522 (Non-Small Cell Lung Cancer)
[27] = test system: panel of sixty different human tumor cell lines; assay: NCI human tumor cell panel: whole panel (mean graph summary); details: for CC50: Homo sapiens
[28] = read-out: Log10 GI50 (converted)
[29] = read-out: Log10 TGI (converted)

## OCc1ccc(-c2ccc(-c3ccc(CO)[se]3)s2)[se]1 [compound 676632]
[1]; [28]
  GI50: 87.1 µM
[1]; [29]
  IC (TGI): > 100 µM
[2]; [28]
  GI50: > 100 µM
[2]; read-out: Log10 TGI
  IC (TGI): > 100 µM
[3]; K562, K-562, read-out: Log10 GI50 (converted)
  GI50: 0.0479 µM
[3]; K562, K-562, read-out: Log10 TGI (converted)
  IC (TGI): > 100 µM
[4]; [28]
  GI50: 2.63 µM
[4]; [29]
  IC (TGI): > 100 µM
[5]; NCI-H226, read-out: Log10 GI50 (converted)
  GI50: 0.0195 µM
[5]; NCI-H226, read-out: Log10 TGI (converted)
  IC (TGI): 0.0537 µM
[6]; NCI-H23, read-out: Log10 GI50 (converted)
  GI50: > 100 µM
[6]; NCI-H23, read-out: Log10 TGI (converted)
  IC (TGI): > 100 µM
[7]; SF-268, read-out: Log10 GI50 (converted)
  GI50: > 100 µM
[7]; SF-268, read-out: Log10 TGI (converted)
  IC (TGI): > 100 µM
[8]; SNB-19, read-out: Log10 GI50 (converted)
  GI50: 42.7 µM
[8]; SNB-19, read-out: Log10 TGI (converted)
  IC (TGI): > 100 µM
[9]; SK-MEL-2, read-out: Log10 GI50 (converted)
  GI50: > 100 µM
[9]; SK-MEL-2, read-out: Log10 TGI (converted)
  IC (TGI): > 100 µM
[10]; SK-MEL-28, read-out: Log10 GI50 (converted)
  GI50: > 100 µM
[10]; SK-MEL-28, read-out: Log10 TGI (converted)
  IC (TGI): > 100 µM
[11]; SK-MEL-5, read-out: Log10 GI50 (converted)
  GI50: 63.1 µM
[11]; SK-MEL-5, read-out: Log10 TGI (converted)
  IC (TGI): > 100 µM
[12]; IGROV-1, IGROV1, read-out: Log10 GI50 (converted)
  GI50: 0.0324 µM
[12]; IGROV-1, IGROV1, read-out: Log10 TGI (converted)
  IC (TGI): 0.275 µM
[13]; OVCAR-5, read-out: Log10 GI50 (converted)
  GI50: 0.0132 µM
[13]; OVCAR-5, read-out: Log10 TGI (converted)
  IC (TGI): 0.0776 µM
[14]; 786-0, read-out: Log10 GI50 (converted)
  GI50: > 100 µM
[14]; 786-0, read-out: Log10 TGI (converted)
  IC (TGI): > 100 µM
[15]; A498, read-out: Log10 GI50 (converted)
  GI50: 0.0186 µM
[15]; A498, read-out: Log10 TGI (converted)
  IC (TGI): 0.0427 µM
[16]; CAKI-1, read-out: Log10 GI50 (converted)
  GI50: 0.0126 µM
[16]; CAKI-1, read-out: Log10 TGI (converted)
  IC (TGI): 0.123 µM
[17]; RXF-393, read-out: Log10 GI50 (converted)
  GI50: > 100 µM
[17]; RXF-393, read-out: Log10 TGI (converted)
  IC (TGI): > 100 µM
[18]; [28]
  GI50: > 100 µM
[18]; [29]
  IC (TGI): > 100 µM
[19]; TK-10, read-out: Log10 GI50 (converted)
  GI50: 0.0282 µM
[19]; TK-10, read-out: Log10 TGI (converted)
  IC (TGI): 0.0813 µM
[20]; PC-3, read-out: Log10 GI50 (converted)
  GI50: > 100 µM
[20]; PC-3, read-out: Log10 TGI (converted)
  IC (TGI): > 100 µM
[21]; [28]
  GI50: > 100 µM
[21]; [29]
  IC (TGI): > 100 µM
[22]; [28]
  GI50: > 100 µM
[22]; [29]
  IC (TGI): > 100 µM
[23]; [28]
  GI50: > 100 µM
[23]; [29]
  IC (TGI): > 100 µM
[24]; BT-549, read-out: Log10 GI50 (converted)
  GI50: 0.195 µM
[24]; BT-549, read-out: Log10 TGI (converted)
  IC (TGI): > 100 µM
[25]
  selectivity ratio: > 1000
[26]; NCI-H522, read-out: Log10 GI50 (converted)
  GI50: > 100 µM
[26]; NCI-H522, read-out: Log10 TGI
  IC (TGI): > 100 µM
[27]; read-out: Log10 LC50, MG_MID, mean over the panel (converted)
  CC50: 69.2 µM
[27]; read-out: Log10 LC50, row head (cell line) not given (converted)
  CC50: > 100 µM
[27]; listed as head (cell line) not given
  Log10 TGI: >−4.00
[27]; mean over the panel
  Log10 GI50, MG_MID: −5.16
  Log10 TGI, MG_MID: −4.48
[27]; whole panel
  Log10 TGI, Delta: 2.89
  Log10 TGI, Range: 3.37
